Active and inactive are the calls of the source. The calls are words filed in the database; no cut-off is given here.
How the values were obtained:
[1] = Antiproliferative activity against human MDA-MB-231 cells after 96 hrs by SRB assay; type: functional, cell-based; conditions: MDA-MB-231, 96 h
[2] = Antiproliferative activity against human MCF7 cells after 96 hrs by SRB assay; type: functional, cell-based; conditions: MCF7, 96 h
[3] = Antiproliferative activity against human T47D cells after 96 hrs by SRB assay; type: functional, cell-based
[4] = Antiproliferative activity against human PC3 cells after 96 hrs by SRB assay; type: functional, cell-based; conditions: PC-3, 96 h
[5] = Antiproliferative activity against human DU145 cells after 96 hrs by SRB assay; type: functional, cell-based; conditions: DU-145, 96 h
[6] = Antiproliferative activity against human HCT116 cells after 96 hrs by SRB assay; type: functional, cell-based; conditions: HCT-116, 96 h
[7] = Antiproliferative activity against human HT-29 cells after 96 hrs by SRB assay; type: functional, cell-based; conditions: HT-29, 96 h
[8] = Antiproliferative activity against human HL60 cells after 96 hrs by SRB assay; type: functional, cell-based; conditions: HL-60, 96 h
[9] = Antiproliferative activity against HAF cells after 96 hrs by SRB assay; type: cell-based; conditions: Homo sapiens
[10] = Selectivity index, ratio of IC50 for HAF cells to IC50 for human MDA-MB-231 cells; type: functional
MCF7 = assay: Selectivity index, ratio of IC50 for HAF cells to IC50 for human MCF7 cells; type: functional
T47D [11] = assay: Selectivity index, ratio of IC50 for HAF cells to IC50 for human T47D cells; type: functional
PC-3 = assay: Selectivity index, ratio of IC50 for HAF cells to IC50 for human PC3 cells; type: functional
DU-145 = assay: Selectivity index, ratio of IC50 for HAF cells to IC50 for human DU145 cells; type: functional
HCT-116 = assay: Selectivity index, ratio of IC50 for HAF cells to IC50 for human HCT116 cells; type: functional
[12] = Selectivity index, ratio of IC50 for HAF cells to IC50 for human HT-29 cells; type: functional
HL-60 = assay: Selectivity index, ratio of IC50 for HAF cells to IC50 for human HL60 cells; type: functional
[13] = (§1) Inhibition of colony formation in human T47D cells after 7 days by crystal violet staining based assay; type: functional, cell-based; conditions: 168 h
T47D [14] = assay: as §1; type: functional, cell-based
[15] = (§2) Antimigratory activity in human T47D cells assessed as inhibition of cell migration after 12 hrs by crystal violet staining based transwell migration assay; type: functional
T47D [16] = assay: as §2; type: functional
T47D [17] = assay: Induction of apoptosis in human T47D cells assessed as early apoptotic cells at 5 uM after 48 hrs by Annexin V-FITC/propidium iodide staining based flow cytometry (reference value: 1.75 %); type: functional
T47D [18] = assay: Induction of apoptosis in human T47D cells assessed as late apoptotic cells at 5 uM after 48 hrs by Annexin V-FITC/propidium iodide staining based flow cytometry (reference value: 2.42 %); type: functional
T47D [19] = assay: Induction of apoptosis in human T47D cells assessed as early apoptotic cells at 10 uM after 48 hrs by Annexin V-FITC/propidium iodide staining based flow cytometry (reference value: 1.75 %); type: functional
T47D [20] = assay: Induction of apoptosis in human T47D cells assessed as late apoptotic cells at 10 uM after 48 hrs by Annexin V-FITC/propidium iodide staining based flow cytometry (reference value: 2.42 %); type: functional
T47D [21] = assay: Induction of apoptosis in human T47D cells assessed as early apoptotic cells at 20 uM after 48 hrs by Annexin V-FITC/propidium iodide staining based flow cytometry (reference value: 1.75 %); type: functional
T47D [22] = assay: Induction of apoptosis in human T47D cells assessed as late apoptotic cells at 20 uM after 48 hrs by Annexin V-FITC/propidium iodide staining based flow cytometry (reference value: 2.42 %); type: functional
[23] = Antitumor activity against human T47D cells xenografted in nude mouse assessed as tumor weight at 5 mg/kg/day, ip administered daily for 18 days measured every 3 days during compound dosing (reference value: 882 +/- 149 mg); type: functional
[24] = Antitumor activity against human T47D cells xenografted in nude mouse assessed as tumor volume at 5 mg/kg/day, ip administered daily for 18 days measured every 3 days during compound dosing (reference value: 1220 +/- 127 mm3); type: functional
Mus musculus [25] = assay: Toxicity in nude mouse xenografted with human T47D cells assessed as body weight loss at 5 mg/kg/day, ip administered daily for 18 days measured every 3 days during compound dosing; type: organism-based; conditions: in vivo
Mus musculus [26] = assay: Toxicity in nude mouse xenografted with human T47D cells assessed as diarrhoea at 5 mg/kg/day, ip administered daily for 18 days; type: organism-based; conditions: in vivo, 432 h
Mus musculus [27] = assay: Toxicity in nude mouse xenografted with human T47D cells assessed as organ damage at 5 mg/kg/day, ip administered daily for 18 days; type: organism-based; conditions: in vivo, 432 h
Mus musculus [28] = assay: Acute toxicity in nude mouse xenografted with human T47D cells assessed as mortality at 5 to 40 mg/kg/day, ip administered daily for 18 days measured on day 18 post last dose; type: organism-based; conditions: in vivo, 432 h
T47D [29] = assay: Induction of apoptosis in human T47D cells assessed as early apoptotic cells at 20 uM after 48 hrs by Annexin V-FITC/propidium iodide staining based flow cytometry (reference value: 3.79 %); type: functional
T47D [30] = assay: Induction of apoptosis in human T47D cells assessed as late apoptotic cells at 20 uM after 48 hrs by Annexin V-FITC/propidium iodide staining based flow cytometry (reference value: 3.04 %); type: functional
T47D [31] = assay: Induction of apoptosis in human T47D cells assessed as early apoptotic cells at 40 uM after 48 hrs by Annexin V-FITC/propidium iodide staining based flow cytometry (reference value: 3.79 %); type: functional
T47D [32] = assay: Induction of apoptosis in human T47D cells assessed as late apoptotic cells at 40 uM after 48 hrs by Annexin V-FITC/propidium iodide staining based flow cytometry (reference value: 3.04 %); type: functional
T47D [33] = assay: Induction of apoptosis in human T47D cells assessed as early apoptotic cells at 80 uM after 48 hrs by Annexin V-FITC/propidium iodide staining based flow cytometry (reference value: 3.79 %); type: functional
T47D [34] = assay: Induction of apoptosis in human T47D cells assessed as late apoptotic cells at 80 uM after 48 hrs by Annexin V-FITC/propidium iodide staining based flow cytometry (reference value: 3.04 %); type: functional
[35] = Potency index, ratio of podophyllotoxin IC50 to compound IC50 for human T47D cells; type: functional
T47D [36] = assay: Antimigratory activity in human T47D cells assessed as inhibition of cell migration at 20 uM after 12 hrs by crystal violet staining based transwell migration assay; type: functional
T47D [37] = assay: Induction of apoptosis in human T47D cells assessed as early apoptotic cells at 5 uM after 48 hrs by Annexin V-FITC/propidium iodide staining based flow cytometry (reference value: 1.49 %); type: functional
T47D [38] = assay: Induction of apoptosis in human T47D cells assessed as late apoptotic cells at 5 uM after 48 hrs by Annexin V-FITC/propidium iodide staining based flow cytometry (reference value: 2.72 %); type: functional
T47D [39] = assay: Induction of apoptosis in human T47D cells assessed as early apoptotic cells at 10 uM after 48 hrs by Annexin V-FITC/propidium iodide staining based flow cytometry (reference value: 1.49 %); type: functional
T47D [40] = assay: Induction of apoptosis in human T47D cells assessed as late apoptotic cells at 10 uM after 48 hrs by Annexin V-FITC/propidium iodide staining based flow cytometry (reference value: 2.72 %); type: functional
T47D [41] = assay: Induction of apoptosis in human T47D cells assessed as early apoptotic cells at 20 uM after 48 hrs by Annexin V-FITC/propidium iodide staining based flow cytometry (reference value: 1.49 %); type: functional
T47D [42] = assay: Induction of apoptosis in human T47D cells assessed as late apoptotic cells at 20 uM after 48 hrs by Annexin V-FITC/propidium iodide staining based flow cytometry (reference value: 2.72 %); type: functional
[43] = Antitumor activity against human T47D cells xenografted in nude mouse assessed as tumor weight at 20 mg/kg/day, ip administered daily for 18 days measured every 3 days during compound dosing (reference value: 882 +/- 149 mg); type: functional
[44] = Antitumor activity against human T47D cells xenografted in nude mouse assessed as tumor weight at 40 mg/kg/day, ip administered daily for 18 days measured every 3 days during compound dosing (reference value: 882 +/- 149 mg); type: functional
[45] = Antitumor activity against human T47D cells xenografted in nude mouse assessed as tumor volume at 20 mg/kg/day, ip administered daily for 18 days measured every 3 days during compound dosing (reference value: 1220 +/- 127 mm3); type: functional
[46] = Antitumor activity against human T47D cells xenografted in nude mouse assessed as tumor volume at 40 mg/kg/day, ip administered daily for 18 days measured every 3 days during compound dosing (reference value: 1220 +/- 127 mm3); type: functional
Mus musculus [47] = assay: Acute toxicity in nude mouse xenografted with human T47D cells assessed as effect on the survival rate at 20 to 40 mg/kg/day, ip administered daily for 18 days measured on day 18 post last dose; type: organism-based; conditions: in vivo, 432 h
Mus musculus [48] = assay: Toxicity in nude mouse xenografted with human T47D cells assessed as body weight loss at 20 to 40 mg/kg/day, ip administered daily for 18 days measured every 3 days during compound dosing; type: organism-based; conditions: in vivo
Mus musculus [49] = assay: Toxicity in nude mouse xenografted with human T47D cells assessed as diarrhoea at 20 to 40 mg/kg/day, ip administered daily for 18 days; type: organism-based; conditions: in vivo, 432 h
Mus musculus [50] = assay: Toxicity in nude mouse xenografted with human T47D cells assessed as organ damage at 20 to 40 mg/kg/day, ip administered daily for 18 days; type: organism-based; conditions: in vivo, 432 h
Mus musculus [51] = assay: Toxicity in nude mouse xenografted with human T47D cells assessed as effect on food and water withdrawal at 20 to 40 mg/kg/day, ip administered daily for 18 days measured every 3 days during compound dosing; type: organism-based; conditions: in vivo
Mus musculus [52] = assay: Toxicity in nude mouse xenografted with human T47D cells assessed as incidence of impaired posture or movement at 20 to 40 mg/kg/day, ip administered daily for 18 days measured every 3 days during compound dosing; type: organism-based; conditions: in vivo

| Structure (SMILES) | IC50 [1] | IC50 [2] | IC50 [3] | IC50 [4] | IC50 [5] | IC50 [6] | IC50 [7] | IC50 [8] | IC50 [9] | Ratio IC50 [10] | Ratio IC50 (MCF7) | Ratio IC50 (T47D [11]) | Ratio IC50 (PC-3) | Ratio IC50 (DU-145) | Ratio IC50 (HCT-116) | Ratio IC50 [12] | Ratio IC50 (HL-60) | EC50 [13] | Activity (T47D [14]) | EC50 [15] | other results |
| --- | --- | --- | --- | --- | --- | --- | --- | --- | --- | --- | --- | --- | --- | --- | --- | --- | --- | --- | --- | --- | --- |
| COc1cc([C@@H]2c3cc4c(cc3[C@H](O)[C@H]3COC(=O)[C@H]23)OCO4)cc(OC)c1OC [PODOFILOX] | 120 nM | 10 nM | 250 nM | 50 nM | 10 nM | 20 nM | 20 nM | 480 nM | 90 nM | 0.8 | 0.8 | 0.8 | 0.8 | 0.8 | 0.8 | 0.8 | 0.8 | 2.97 nM | Dose-dependent effect | 8980 nM | Activity (T47D [16]): Dose-dependent effect; Activity (T47D [17]): 4.97%; Activity (T47D [18]): 4.45%; Activity (T47D [19]): 7.47%; Activity (T47D [20]): 6.98%; Activity (T47D [21]): 11.86%; Activity (T47D [22]): 7.21%; Activity [23]: 200 mg; Activity [24]: 407 mm3; Activity (Mus musculus [25]): Toxic; Activity (Mus musculus [26]): Toxic; Activity (Mus musculus [27]): Toxic; Activity (Mus musculus [28]): Toxic |
| COc1cc2c(cc1C(=O)Nc1ccccc1)CC[C@H]1C(C)(C)[C@@H](O)CC[C@]21C | 4490 nM | 4800 nM | 840 nM | 2510 nM | 10600 nM | 1540 nM | 2450 nM | 12400 nM | 9460 nM | 1.9 | 1.9 | 1.9 | 1.9 | 1.9 | 1.9 | 1.9 | 1.9 | 987 nM | Dose-dependent effect | 37700 nM | Activity (T47D [16]): Dose-dependent effect; Activity (T47D [29]): 2.25%; Activity (T47D [30]): 3.54%; Activity (T47D [31]): 3.33%; Activity (T47D [32]): 6.97%; Activity (T47D [33]): 4.7%; Activity (T47D [34]): 7.72% |
| COc1cc2c(cc1C(=O)Nc1ccc(N(C)C)cc1)CC[C@H]1C(C)(C)[C@@H](O)CC[C@]21C | 320 nM | 280 nM | 10 nM | 540 nM | 280 nM | 570 nM | 590 nM | 40 nM | 4540 nM | 13.8 | 13.8 | 13.8 | 13.8 | 13.8 | 13.8 | 13.8 | 13.8 | 2.56 nM | Dose-dependent effect | 6420 nM | Ratio IC50 [35]: 25; Activity (T47D [36]): Active; Activity (T47D [16]): Dose-dependent effect; Activity (T47D [37]): 4.31%; Activity (T47D [38]): 0.49%; Activity (T47D [39]): 16.86%; Activity (T47D [40]): 1.09%; Activity (T47D [41]): 24.58%; Activity (T47D [42]): 1.29%; Activity [43]: 550 mg; Activity [44]: 320 mg; Activity [45]: 654 mm3; Activity [46]: 401 mm3; Activity (Mus musculus [47]): Non-Toxic; Activity (Mus musculus [48]): Non-Toxic; Activity (Mus musculus [49]): Non-Toxic; Activity (Mus musculus [50]): Non-Toxic; Activity (Mus musculus [51]): Non-Toxic; Activity (Mus musculus [52]): Non-Toxic |
